Converted amounts (≈) assume the structure as drawn.
Legend:
E. coli tolC = assay: Susceptibility testing (MIC, CLSI microdilution); type: cell-based, Escherichia coli; conditions: 20 h at 35° C., unit assumed
Description: (§1) Compounds were tested following the microdilution method of CLSI (Clinical and Laboratory Standards Institute. Methods for dilution antimicrobial susceptibility tests for bacteria that grow aerobically; Approved standard—sixth edition. CLSI document M7-A5, CLSI, Wayne, Pa. 2003). Assays were performed in sterile plastic 96-well microtiter trays with round bottom wells (Greiner).
(§2) Stock solutions of test compounds and control antibiotics were prepared at 10 mg/ml in DMSO. Serial 2-fold dilutions of each drug were performed in a microtiter plate across each row using DMSO as solvent at 100-fold the desired final concentration. Wells in columns #1-11 contain drug and column #12 was kept as a growth control for the organism with no drug. Each well in the mother plate was diluted with sterile deionized water and DMSO, mixed, and volumes of 10 μl distributed to each well in the resulting assay plates.
(§3) Stock cultures were prepared using the Microbank™ method (Pro-Lab Diagnostics) and stored at −80° C. To propagate each strain, one bead was removed from the frozen vial and aseptically streaked onto Trypticase Soy Agar (Difco) which were incubated at 35° C. Standardized inocula were prepared using the direct colony suspension method according to CLSI guidelines (Clinical and Laboratory Standards Institute. Methods for dilution antimicrobial susceptibility tests for bacteria that grow aerobically; Approved standard—sixth edition. CLSI document M7-A5, CLSI, Wayne, Pa., 2003). Isolated colonies were selected from an 18-24 hr agar plate and resuspended in 0.9% sterile saline to match a 0.5 McFarland turbidity standard using a calorimeter (Vitek) at 80% of transmitance. The suspension was used within 15 minutes of preparation.
(§4) Mueller-Hinton Broth (MHB) (Difco) was prepared at a 1.1× concentration and supplemented with Ca++ and Mg++ as recommended by CLSI. For each organism, the standardized suspension was diluted 1:180 into appropriate growth medium in a sterile reservoir. After mixing, wells in the drug-containing assay plates were inoculated with a volume of 90 μl. Thus, for each minimum inhibitory concentration (MIC) determination, each well contains a final volume of 100 μl with an inoculum size of approximately 5×10^5 colony forming units (cfu)/ml and no more than 1% DMSO.
(§5) The completed microtiter plates were incubated 20 h at 35° C. in ambient air. Optical density of each well was determined at 600 nm using a VersaMax Microplate reader (Molecular Devices, Sunnyvale, Calif.). The MIC was defined as the lowest drug concentration causing complete suppression of visible bacterial growth.

E. coli (2) = assay: Susceptibility testing (MIC, CLSI microdilution); type: cell-based, Escherichia coli; conditions: 20 h at 35° C., in µg/mL (unit assumed)
Description: as §1, §2, §3, §4, §5

H. influen. = assay: Susceptibility testing (MIC, CLSI microdilution); type: cell-based, Haemophilus influenzae; conditions: 20 h at 35° C., unit assumed
Description: as §1, §2, §3, §4, §5

P. ae LpxC enzyme = P. ae LpxC enzyme (Pseudomonas aeruginosa, UniProt P47205); assay: Enzyme inhibition testing (fluorescamine assay); type: biochemical; conditions: read-out: ENZYME (percent inhibition); for inhibition at 0.5 µg/mL: @0.5 μg/ml; for inhibition at 0.1 µg/mL: @0.1 μg/ml
Description: Compounds were tested based on a published method (Wang W., 2001, Anal Biochem, 290, 338-46) with modifications. Enzyme assays were performed in the assay buffer (50 mM HEPES, pH8, 0.005% Brij, 50 μM ZnSO4, 1 mg/ml BSA) in 96-well V-bottom microtiter plates.
Stock solutions of test compounds and control antibiotics are prepared at 10 mg/ml in DMSO and are diluted in the assay buffer to 6-fold the final testing concentration. 5 μl compound dilution is distributed to the well of the assay plate. EDTA is used as positive control and the final concentration in assay is 12.5 mM.
P. ae LpxC enzyme dilution in the assay buffer is added to the compound in plate and pre-incubated with the compound at room temperature for 10 min. LpxC substrate is added to initiate the enzyme reaction and the final enzyme and substrate concentrations are 1.2 μM and 0.4 mM, respectively. The reaction continues at RT for 4 hrs before diluted with 45 μl of Borate buffer (0.4 M, pH9), followed by addition of 40 μl derivatization reagent (fluorescamine 2 mg/ml DMF). This mixture is incubated at RT for 10 min followed by addition of 150 μl DMF/H2O (1:1). The resulting solution is loaded onto Millipore filter unit (Microcon 10 k MWCO) and spun at 13 k rpm on bench top centrifuge for 15 min. 100 μl of this filtrate is transferred to a low fluorescence clear-bottom 96-well plate (Corning) and the fluorescence is detected at ex360 nm and em465 nm on a Tecan fluorescence plate reader. The percent inhibition is calculated based on EDTA produces 100% inhibition and negative control produces 100% activity.

P. aerug. Hypersuc = assay: Susceptibility testing (MIC, CLSI microdilution); type: cell-based, Pseudomonas aeruginosa; conditions: 20 h at 35° C., Δ efflux, hypersusceptible strain, unit assumed
Description: as §1, §2, §3, §4, §5

P. aerug. (2) = assay: Susceptibility testing (MIC, CLSI microdilution); type: cell-based, Pseudomonas aeruginosa; conditions: 20 h at 35° C., in µg/mL (unit assumed)
Description: as §1, §2, §3, §4, §5

K. pneu. = assay: Susceptibility testing (MIC, CLSI microdilution); type: cell-based, Klebsiella pneumoniae; conditions: 20 h at 35° C., unit assumed
Description: as §1, §2, §3, §4, §5

Sequence of P. ae LpxC enzyme (P47205 whole entry): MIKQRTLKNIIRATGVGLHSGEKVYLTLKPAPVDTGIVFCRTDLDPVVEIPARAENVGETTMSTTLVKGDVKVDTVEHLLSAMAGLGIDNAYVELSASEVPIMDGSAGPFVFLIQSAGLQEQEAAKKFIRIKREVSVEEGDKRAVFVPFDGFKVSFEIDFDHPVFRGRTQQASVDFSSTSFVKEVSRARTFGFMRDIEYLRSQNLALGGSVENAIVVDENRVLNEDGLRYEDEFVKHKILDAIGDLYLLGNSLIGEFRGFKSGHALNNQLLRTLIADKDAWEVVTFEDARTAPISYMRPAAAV

Row | Compound | MIC E. coli tolC (E. coli tolC) | MIC E. coli (2) (E. coli (2)) | MIC H. influen. (H. influen.) | inhibition at 0.5 µg/mL (P. ae LpxC enzyme) | MIC P. aerug. Hypersuc (P. aerug. Hypersuc) | MIC P. aerug. (2) (P. aerug. (2)) | MIC K. pneu. (K. pneu.) | inhibition at 10 µg/mL (P. ae LpxC enzyme; @10 μg/ml) | inhibition at 0.1 µg/mL (P. ae LpxC enzyme)
1 | CCCc1ccc(-c2ccc(C(=O)N3C[C@H](O)[C@H](O)[C@H]3C(=O)NO)cc2)cc1 [Compound 10] | 64 µg/mL (≈ 166 µM) | >64 | > 64 µg/mL | 60% | 64 µg/mL (≈ 166 µM) | >64 | > 64 µg/mL | – | –
2 | CCCc1ccc(-c2ccc(C(=O)N3C[C@@H](N)[C@H](O)[C@H]3C(=O)NO)cc2)cc1 [Compound 11, (2S,3S,4R)-4-Amino-N,3-dihydroxy-1-(4′-propylbiphenylcarbonyl)pyrrolidine-2-carboxamide] | 32 µg/mL (≈ 83.5 µM) | >64 | 32 µg/mL (≈ 83.5 µM) | 84% | 16 µg/mL (≈ 41.7 µM) | 64 | > 64 µg/mL | – | –
3 | CCCc1ccc(-c2ccc(C(=O)N3CCS[C@H]3C(=O)NO)cc2)cc1 [Compound 13] | > 64 µg/mL | >64 | 64 µg/mL (≈ 173 µM) | – | 16 µg/mL (≈ 43.2 µM) | 64 | 32 µg/mL (≈ 86.4 µM) | 71% | –
4 | CCCc1ccc(-c2ccc(C(=O)N3CC[S+]([O-])[C@H]3C(=O)NO)cc2)cc1 (stereo partly drawn) [Compound 14, (S)-N-Hydroxy-3-(4′-propylbiphenylcarbonyl)thiazolidine-sulfoxide-2-carboxamide] | 16 µg/mL (≈ 41.4 µM) | >64 | > 64 µg/mL | 99% | 8 µg/mL (≈ 20.7 µM) | 32 | 64 µg/mL (≈ 166 µM) | – | –
5 | CCCc1ccc(-c2ccc(C(=O)N3CCS(=O)(=O)[C@H]3C(=O)NO)cc2)cc1 [Compound 15, (S)-N-Hydroxy-3-(4′-propylbiphenylcarbonyl)thiazolidine-sulfone-2-carboxamide] | 2 µg/mL (≈ 4.97 µM) | 16 | 32 µg/mL (≈ 79.5 µM) | – | 2 µg/mL (≈ 4.97 µM) | 8 | 4 µg/mL (≈ 9.94 µM) | – | 41%
6 | CCCc1ccc(-c2ccc(C(=O)N3CSC[C@H]3C(=O)NO)cc2)cc1 [Compound 16] | 16 µg/mL (≈ 43.2 µM) | >64 | > 64 µg/mL | 57% | 16 µg/mL (≈ 43.2 µM) | >64 | > 64 µg/mL | – | –
7 | CCCc1ccc(-c2ccc(C(=O)N3CCS[C@@H]3C(=O)NO)cc2)cc1 [Compound 18, (R)-N-Hydroxy-3-(4′-propylbiphenylcarbonyl)thiazolidine-2-carboxamide] | 16 µg/mL (≈ 43.2 µM) | >64 | 64 µg/mL (≈ 173 µM) | 50% | 32 µg/mL (≈ 86.4 µM) | >64 | 32 µg/mL (≈ 86.4 µM) | – | –
8 | CCCc1ccc(-c2ccc(C(=O)N3CCS(=O)(=O)[C@@H]3C(=O)NO)cc2)cc1 [Compound 19, (R)-N-Hydroxy-3-(4′-propylbiphenylcarbonyl)thiazolidine-sulfone-2-carboxamide] | 2 µg/mL (≈ 4.97 µM) | 8-16 | 32 µg/mL (≈ 79.5 µM) | – | 2 µg/mL (≈ 4.97 µM) | 8 | 4 µg/mL (≈ 9.94 µM) | – | 10%
9 | CCCc1ccc(-c2ccc(C(=O)N[C@@H](CCSC)C(=O)NO)cc2)cc1 [Compound 26, (S)-N-(1-(Hydroxyamino)-4-(methylthio)-1-oxobutan-2-yl)-4′-propylbiphenyl-4-carboxamide] | > 64 µg/mL | >64 | > 64 µg/mL | 72% | > 64 µg/mL | >64 | > 64 µg/mL | – | –
10 | CCCc1ccc(-c2ccc(C(=O)N[C@@H](CCS(C)(=O)=O)C(=O)NO)cc2)cc1 [Compound 27, (S)-N-(1-(Hydroxyamino)-4-(methylsulfone)-1-oxobutan-2-yl)-4′-propylbiphenyl-4-carboxamide] | > 64 µg/mL | >64 | > 64 µg/mL | – | > 64 µg/mL | >64 | > 64 µg/mL | – | 38%
11 | CCCc1ccc(-c2ccc(C(=O)NC(C(=O)NO)c3cccs3)cc2)cc1 (stereo not shown) [Compound 30, N-(2-(Hydroxyamino)-2-oxo-1-(thiophen-2-yl)ethyl)-4′-propylbiphenyl-4-carboxamide] | 2 µg/mL (≈ 5.07 µM) | 64 | 16 µg/mL (≈ 40.6 µM) | 87% | 32 µg/mL (≈ 81.1 µM) | >64 | 8 µg/mL (≈ 20.3 µM) | – | –
12 | CCCc1ccc(-c2ccc(C(=O)N[C@@H](Cn3cccn3)C(=O)NO)cc2)cc1 [Compound 31] | 1 µg/mL (≈ 2.55 µM) | >64 | > 64 µg/mL | 100% | 64 µg/mL (≈ 163 µM) | >64 | > 64 µg/mL | – | –
13 | CCOc1ccc(-c2ccc(C(=O)N3CCS(=O)(=O)[C@H]3C(=O)NO)cc2)cc1 [Compound 33, (S)-3-(4′-Ethoxybiphenylcarbonyl)-N-hydroxythiazolidinesulfone-2-carboxamide] | ≤ 0.06 µg/mL | >64 | 16 µg/mL (≈ 39.6 µM) | – | 2 µg/mL (≈ 4.95 µM) | 4-16 | 32 µg/mL (≈ 79.1 µM) | – | 12%

Reference: patent US8088804B2, “N-hydroxyamide derivatives possessing antibacterial activity” (Pfizer Inc., priority 2005, dated 2012)
